Experimental data from patent publication US11505521B2 (Biothea Pharma, Inc., priority 2018, dated 2022).
Where two headings read alike, the source gives them in different places.

How the values were obtained:
[1] = Method: The stability of the pharmaceutical compositions of Example 3 were tested. The stability studies were conducted on packaged epinephrine salts at 25° C./RH 60% and 40° C./RH 75% conditions, as well as samples without packaging and exposed to light (4500 Lux) for one month. The appearance, assay content, and related substances were examined at 5, 7, 14 and 30 days.
(§1) The assay content was tested using Sartorius balances (Model SQP), an INESA pH meter (Model PHS-3E), a Thermo HPLC (UltiMate 3000 System, UV Wavelength: 205 nm), and Phenomenex Luna columns (5 μm C18 (2), 4.6×250 mm). The column temperature was 40° C., and the autosampler temperature was room temperature. The injection volume was 5 μL.
(§2) Mobile Phase A was prepared by weighing 4.0 g tetramethylammonium bisulfate (MERYER, Batch No. 77957139) and 1.1 sodium 1-heptasulfonate (Admas-beta, Batch No. P1343755), and transferring the materials to a flask. 2 mL of 0.1 mol/L EDTA solution (Brand: Sinopharm Chemical Reagent Co., Ltd., Batch No. 20150410) was added to the flask and the volume was adjusted to 950 mL using water. The solution was mixed and adjusted to a pH of 3.5 with 0.1N sodium hydroxide solution (Brand: Enox, Batch No. 20161201). Mobile Phase B was prepared using methanol. The isocratic elution was used in a proportion of A/B of 85/15. The run time was 10 minutes.
The assay content was analyzed by dissolving 20 mg of each sample to be examined in 50 mL of Mobile Phase A (0.4 mg/mL) as assay test solution. The sample was used and tested right after it was ready and was protected from light.
as §1, with “purity” for “assay content”, “PhenomenexSynergi” for “Phenomenex Luna”, “(4” for “(5”, “Polar-RP 80 A 250×4.6” for “C18 (2), 4.6×250”, “30°” for “40°”
Mobile Phase A was prepared by weighing 1.136 g of potassium dihydrogen orthophosphate (Brand: CNW, Batch No. A1040040) and 1.74 g of dipotassium hydrogen orthophosphate (Brand: Ourchem, Batch No. 20160219) and transferring into 1000 mL of water. The pH was adjusted to 3.0±0.05 with orthophosphoric acid (Brand: Ourchem, Batch No. 4112K060). The solution was filtered through a 0.45 μm membrane and degassed. Mobile Phase B was prepared using methanol. The run time was 50 minutes.
The purity was analyzed by dissolving 10 mg of each sample to be examined in 25 mL of Mobile Phase A (0.4 mg/mL) as purity and related substance test solution. The sample was used and tested right after it was ready and was protected from light.

[2] = sublingual tablet of Example 3, 10 mg epinephrine base, receptor pH 7.4, 37° C.
Method: as §1, with “in-vitro permeability of the pharmaceutical compositions of Example 3 were tested. The tests were conducted” for “assay content was tested”, “using drug transdermal diffusion test instruments (Brand Huanghai, Model No. RJY-6B),” for “using”, “C.” for “C.,”
as §2
The in vitro diffusion of epinephrine salts were evaluated using Franz cells with an OD of 20 mm and reservoir volume of 7 mL. Dialysis membranes (Spectra/Por® dialysis membranes with 1,000 Da MWCO) were used to simulate sublingual mucous membrane in the vitro permeability tests. The assay content of the active components was detected in receiving pools. A receptor chamber with a magnetic stirrer was filled with phosphate buffer solution (pH 7.4) as the diffusion medium. The water bath was set at 37° C., and water was circulated in the Franz cells.
Each tablet was placed at the center of the donor chamber on the membrane at T0, and 2 mL of the artificial saliva (Brand: Biomart, Brand No. GL0305) was added to facilitate tablet disintegration and dissolution. Aliquots of 1 mL were withdrawn from the receptor chamber at 10, 30, 60, 90, and 120 min. The volumes withdrawn were replenished with fresh medium. Samples were transferred to HPLC vials for HPLC analysis.

[3] = light 4500 Lux, under air, 0 days
[4] = light 4500 Lux, under air, 5 days
[5] = light 4500 Lux, under air, 7 days
[6] = light 4500 Lux, under air, 14 days
[7] = light 4500 Lux, under air, 30 days

## CNC[C@H](O)c1ccc(O)c(O)c1 [epinephrine bitartrate]
[1]; 25° C./60% RH, 0 days
  Appearance: Off-white
  Content (%): 100.00%
  Related substance (%): 0.08%
[1]; 25° C./60% RH, 5 days
  Appearance: Off-white
  Content (%): 100.05%
  Related substance (%): 0.08%
[1]; 25° C./60% RH, 7 days
  Appearance: Off-white
  Content (%): 100.83%
  Related substance (%): 0.08%
[1]; 25° C./60% RH, 14 days
  Appearance: Off-white
  Content (%): 99.82%
  Related substance (%): 0.09%
[1]; 25° C./60% RH, 30 days
  Appearance: Off-white
  Content (%): 100.33%
  Related substance (%): 0.09%
[1]; 40° C./75% RH, 0 days
  Appearance: Off-white
  Content (%): 100.00%
  Related substance (%): 0.08%
[1]; 40° C./75% RH, 5 days
  Appearance: Off-white
  Content (%): 100.43%
  Related substance (%): 0.09%
[1]; 40° C./75% RH, 7 days
  Appearance: Off-white
  Content (%): 100.84%
  Related substance (%): 0.09%
[1]; 40° C./75% RH, 14 days
  Appearance: Off-white
  Content (%): 100.17%
  Related substance (%): 0.09%
[1]; 40° C./75% RH, 30 days
  Appearance: Off-white
  Content (%): 100.96%
  Related substance (%): 0.10%
[1]; [3]
  Appearance: Off-white
  Content (%): 100.00%
  Related substance (%): 0.08%
[1]; [4]
  Appearance: Off-white
  Content (%): 99.71%
  Related substance (%): 0.10%
[1]; [5]
  Appearance: Off-white
  Content (%): 102.34%
  Related substance (%): 0.10%
[1]; [6]
  Appearance: Off-white
  Content (%): 100.43%
  Related substance (%): 0.09%
[1]; [7]
  Appearance: Off-white
  Content (%): 100.39%
  Related substance (%): 0.09%
[2]
  Diffusion content (%) 120 min: 67.8%

## CNC[C@H](O)c1ccc(O)c(O)c1 [epinephrine malonate]
[1]; 25° C./60% RH, 0 days
  Appearance: Off-white
  Content (%): 100.00%
  Related substance (%): 0.01%
[1]; 25° C./60% RH, 5 days
  Appearance: Off-white
  Content (%): 99.94%
  Related substance (%): 0.02%
[1]; 25° C./60% RH, 7 days
  Appearance: Off-white
  Content (%): 99.62%
  Related substance (%): 0.02%
[1]; 25° C./60% RH, 14 days
  Appearance: Off-white
  Content (%): 98.81%
  Related substance (%): 0.05%
[1]; 25° C./60% RH, 30 days
  Appearance: Off-white
  Content (%): 100.64%
  Related substance (%): 0.05%
[1]; 40° C./75% RH, 0 days
  Appearance: Off-white
  Content (%): 100.00%
  Related substance (%): 0.01%
[1]; 40° C./75% RH, 5 days
  Appearance: Off-white
  Content (%): 100.25%
  Related substance (%): 0.03%
[1]; 40° C./75% RH, 7 days
  Appearance: Off-white
  Content (%): 101.64%
  Related substance (%): 0.02%
[1]; 40° C./75% RH, 14 days
  Appearance: Off-white
  Content (%): 99.63%
  Related substance (%): 0.08%
[1]; 40° C./75% RH, 30 days
  Appearance: Off-white
  Content (%): 99.87%
  Related substance (%): 0.11%
[1]; [3]
  Appearance: Off-white
  Content (%): 100.00%
  Related substance (%): 0.01%
[1]; [4]
  Appearance: Off-white
  Content (%): 99.81%
  Related substance (%): 0.03%
[1]; [5]
  Appearance: Off-white
  Content (%): 98.76%
  Related substance (%): 0.03%
[1]; [6]
  Appearance: Off-white
  Content (%): 99.83%
  Related substance (%): 0.06%
[1]; [7]
  Appearance: Off-white
  Content (%): 100.64%
  Related substance (%): 0.04%
[2]
  Diffusion content (%) 120 min: 57.5%

## epinephrine maleate
[1]; 25° C./60% RH, 0 days
  Appearance: Off-white
  Content (%): 100.00%
  Related substance (%): 0.17%
[1]; 25° C./60% RH, 5 days
  Appearance: Off-white
  Content (%): 99.50%
  Related substance (%): 0.18%
[1]; 25° C./60% RH, 7 days
  Appearance: Off-white
  Content (%): 99.97%
  Related substance (%): 0.17%
[1]; 25° C./60% RH, 14 days
  Appearance: Off-white
  Content (%): 99.43%
  Related substance (%): 0.16%
[1]; 25° C./60% RH, 30 days
  Appearance: Off-white
  Content (%): 100.69%
  Related substance (%): 0.17%
[1]; 40° C./75% RH, 0 days
  Appearance: Off-white
  Content (%): 100.00%
  Related substance (%): 0.17%
[1]; 40° C./75% RH, 5 days
  Appearance: Off-white
  Content (%): 99.30%
  Related substance (%): 0.17%
[1]; 40° C./75% RH, 7 days
  Appearance: Off-white
  Content (%): 97.76%
  Related substance (%): 0.18%
[1]; 40° C./75% RH, 14 days
  Appearance: Off-white
  Content (%): 99.24%
  Related substance (%): 0.16%
[1]; 40° C./75% RH, 30 days
  Appearance: Off-white
  Content (%): 100.19%
  Related substance (%): 0.16%
[1]; [3]
  Appearance: Off-white
  Content (%): 100.00%
  Related substance (%): 0.17%
[1]; [4]
  Appearance: Off-white
  Content (%): 99.86%
  Related substance (%): 0.18%
[1]; [5]
  Appearance: Off-white
  Content (%): 100.61%
  Related substance (%): 0.19%
[1]; [6]
  Appearance: Off-white
  Content (%): 99.84%
  Related substance (%): 0.16%
[1]; [7]
  Appearance: Off-white
  Content (%): 100.47%
  Related substance (%): 0.17%
[2]
  Diffusion content (%) 120 min: 63.5%
